SMILES strings stand for the structures.

Assay type in all cases: cell-based, murine
In test [1] the test system is tyrosinase. In words: Western blot of cytosolic tyrosinase protein. The settings on record: 2.5–20 µM, 24 h, cytosolic fraction, B16F10 cells. The procedure:
B16F10 cells were treated with five concentrations (0, 2.5, 5, 10, and 20 µM) of analog 2 for 24 h, washed twice with cold PBS, and then harvested. Pellets were then suspended in buffer A [NaBu, β-glycerophosphate, 1 M HEPES, 100 mM MgCl, 500 mM DTT, 100 mM NaF, 10 mM Na-orthovanadate, pepstatin, aprotinin, leupeptin, 1% NP-40, and PMSF], incubated on ice for 20 min, and then centrifuged at 12,000 rpm for 10 min at 4 °C. The supernatants that were obtained contained cytosolic fractions. The pellets were resuspended in buffer B [NaBu, β-glycerophosphate, 1 M HEPES, 5 M NaCl, 10 mM Na-orthovanadate, pepstatin, aprotinin, leupeptin, 100 mM NaF, 100 mM EDTA, and PMSF], incubated on ice for 30 min, and then centrifuged at 12,000 rpm for 20 min at 4 °C. The resultant supernatants contained nuclear fractions.
Protein concentrations were determined using a BCA™ protein assay kit (Pierce, Rockford, IL, USA). Briefly, lysed samples were boiled for 10 min in gel-loading buffer (0.125 M Tris-HCl, pH 6.8, 4% SDS, 10% 2-mercaptoethanol, and 0.2% bromophenol blue) at a volume ratio of 1:1. […] The western blot data were quantified using CS Analyser 3.2 (Densitograph) image analysis software (http://www.attokorea.co.kr, accessed on 4 March 2022).
(Immunoblotting shows a protein as a band on a membrane.)

The test system of test [2] is tyrosinase. As to the kind of experiment: qRT-PCR of tyrosinase mRNA. The settings on record: versus non-treated controls, B16F10 cells. The procedure:
(§1) The total RNAs from the cells were purified using the RiboEx Total RNA solution (GeneAll Biotechnology, Seoul, Korea) and the cDNA was synthesized from the total RNA (2 µg) using SuPrimeScript RT Premix with random hexamer (GeNet Bio, Daejeon, Korea), according to the manufacturers’ instructions. Real-time qPCR was performed using SensiFASTTM SYBR® No-ROX dye (Bioline, London, UK) and a CFX Connect System (Bio-Rad Laboratories, Hercules, CA, USA). The qRT-PCR primers that are specifically for tyrosinase, TRP-1, TRP-2, and β-actin were obtained from Bioneer Inc. (Daejeon, Korea). The relative gene expressions were calculated using the standard curve method and β-actin as the internal control.

Another test concerns TRP-1. In words: qRT-PCR of TRP-1 mRNA. To be noted: versus non-treated controls, B16F10 cells. Here is the method: as §1
In another test the test system is TRP-2. As to the kind of experiment: qRT-PCR of TRP-2 mRNA. To be noted: versus non-treated controls, B16F10 cells. The procedure:
as §1
A general note: Quantitative PCR measures a nucleic acid by following its amplification.

For `O=C1/C(=C/c2ccc(O)c(O)c2)SC(=S)N1c1ccccc1` [Analog 2, (Z)-5-(3,4-Dihydroxybenzylidene)-3-phenyl-2-thioxothiazolidin-4-one], the tyrosinase protein level result in the test on tyrosinase [1] is “significantly and concentration-dependently reduced”. Further, in the test with tyrosinase [2], the “tyrosinase mRNA expression level” value is “significantly and concentration-dependently reduced”. Also, the “TRP-1 mRNA expression level” value with TRP-1 was “significantly and concentration-dependently reduced”. For the same compound, the “TRP-2 mRNA expression level” value with TRP-2 is “significantly and concentration-dependently reduced”.

The record behind these values is paper PMC9137581, “Identification of a Novel Class of Anti-Melanogenic Compounds, (Z)-5-(Substituted benzylidene)-3-phenyl-2-thioxothiazolidin-4-one Derivatives, and Their Reactive Oxygen Species Scavenging Activities” (Antioxidants, 2022).
